Reference: patent US20190117586A1, “METHODS OF PREVENTING OR TREATING PARKINSON'S DISEASE BY THE FARNESYLATION OF PARIS” (The Johns Hopkins University, priority 2016, published 2019)

Tests used:
[1] = test system: PARIS; test: PARIS farnesylation in SH-SY5Y cells transfected with Flag-tagged PARIS (immunoprecipitation); format: cell-based; details: PARIS overexpression, farnesol
Protocol: (§1) Geraniol or geranylgeraniol have no effect on PGC-1α levels (FIG. 3H).
To confirm that farnesylation of PARIS requires FTase, siRNA-FTase α knockdown or FTI-277 inhibition of FTase in the setting of PARIS overexpression was performed (FIG. 4C). […] To ascertain whether the farnesylation of PARIS affects the DNA binding activity of PARIS on the IRS motif of the PGC-1α promoter, a chromatin immunoprecipitation assay (ChIP) was performed from SH-SY5Y transfected with GFP-tagged PARIS WT or GFP-tagged PARIS C631S. […] To examine the possibility that the farnesylation of PARIS alters its subcellular distribution, subcellular fractionation was used to monitor the levels of PARIS in cytosolic, membrane, soluble nuclear, and chromatin-bound nuclear fractions by immunoblot analysis (FIG. 4F).

[2] = molecular target: FTase (Homo sapiens, UniProt P49354+P49356); test: In vitro farnesylation of recombinant GST-PARIS by FTase and FPP; format: biochemical
Protocol: Next, a biotechnological approach to confirm that PARIS is prenylated was applied (Nguyen et al., 2009). The total cell lysate of SH-SY5Y cells transfected with Flag-tagged PARIS was incubated with a biotin-functionalized geranyl pyrophosphate analogue (Biotin-GPP) and the recombinant FTase W102T/Y154T mutant, which was engineered to utilize Biotin-GPP as a lipid donor (Nguyen et al., 2009). […] In addition, the immunoprecipitate of Flag-tagged PARIS from SH-SY5Y cells transfected with either siRNA-control or siRNA-FTase α was mixed with NBD-GPP, a […] fluorescent analog of FPP for an in vitro farnesylation assay (IVF). […] To determine whether FTase directly farnesylates PARIS, recombinant GST-PARIS was incubated with FTase and FPP in the presence and absence of the FTase inhibitor, FTI-277. GST-PARIS undergoes farnesylation by FTase, which is abolished by the addition of FTase inhibitor, FTI-277 (FIG. 3E).
The in vitro farnesylation assay (IVF) was performed as described (Nguyen et al., 2009; Nguyen et al., 2010; Wu et al., 2007). Briefly, for metabolic global farnesylation, 5 μCi [^3H]-farnesyl pyrophosphate (FPP) (NET1042001MC, PerkinElmer) was treated into SH-SY5Y cells and immunoprecipitant was monitored by immunoblot analysis with Farnesyl antibody. […] For fluorescence-based IVF, immunoprecipitated Flag-tagged PARIS was incubated for 20 min with NBD-GPP (LI-014, Jena Bioscience). […]

[3] = test system: PGC-1α; test: PGC-1α levels in SH-SY5Y cells by immunoblot; format: cell-based; details: FIG. 3H
Protocol: The 9 compounds that activate the PGC-1α promoter in the presence of PARIS were evaluated to determine which compounds induce PGC-1α levels in SH-SY5Y cells (FIGS. 2A and 2B). […] The mRNA level of PGC-1α target genes including copper/zinc superoxide dismutase (SOD1), manganese SOD (SOD2), glutathione peroxidase (GPx1), catalase (CAT), nuclear respiratory factor-1 (NRF-1), mitochondrial transcription factor A (TFAM), mitochondrial uncoupling proteins (UCP2 and UCP3), and the oxidative phosphorylation regulators, ATP5b, cytochrome C (CytC) and cytochrome C oxidase (COX II and IV) were determined by real-time quantitative RT-PCR (qRT-PCR) (FIG. 2C).
as §1

farnesylation of GST-PARIS by FTase [2]	Structure (SMILES)	farnesylation of PARIS by farnesol under FTase inhibition [1]	PGC-1α levels, specificity test with compounds of similar structure [3]
abolished	COC(=O)[C@H](CCSC)NC(=O)c1ccc(NC[C@@H](N)CS)cc1-c1ccccc1 [FTI-277, reference compound]	strongly prevents farnesylation of PARIS by farnesol	–
–	CC(C)=CCC/C(C)=C/CO [Geraniol]	–	no effect
–	CC(C)=CCC/C(C)=C/CC/C(C)=C/CC/C(C)=C/CO [geranylgeraniol]	–	no effect
